In patent publication US9408853B2, “Iridium/rhodium anti-cancer compounds” (University of Warwick, priority 2010, dated 2016):
Like-named read-outs stand apart in the source and are kept apart here.

Columns and labels:
[1] = test system: 9-ethylguanine (9-EtG); experiment: Interactions with nucleobases: 9-EtG adduct formation (1H NMR); type: binding; conditions: 1 mM, 1 mol equiv 9-EtG (ZL33A: 2 mol equiv), D2O, 310 K
Protocol: (§1) Interactions with Nucleobases. The reaction of ZL01, ZL03, ZL04, ZL07, ZL25, ZL33, ZL37, ZL38, ZL43 and ZL54 and ZL33A with nucleobases typically involved addition of a solution containing 1-2 mol equiv of nucleobase in D2O, to an equilibrium solution of ZL01, ZL03, ZL04, ZL07, ZL25, ZL33, ZL37, ZL38, ZL43, ZL54 and ZL33A in a solution of 5% MeOD-d4/95% D2O (v/v). ^1H NMR spectra of these solutions were recorded at 310 K after various time intervals.
(§2) Since DNA is a potential target site for transition metal anticancer complexes,^18 nucleobase binding reactions of compounds ZL01, ZL03, ZL04, ZL07, ZL25, ZL33, ZL33A, ZL37, ZL38, ZL43 and ZL54 with nucleobase models 9-ethylguanine (9-EtG) and 9-ethyladenine (9-EtA), were investigated. Solutions of ZL01, ZL03, ZL04, ZL07, ZL25, ZL33, ZL37, ZL38, ZL43 and ZL54 (1 mM) (containing an equilibrium mixture of these complexes and their respective aqua adducts) with 1 mol equivalent of 9-EtG or 9-EtA in D2O were prepared, and ^1H NMR spectra were recorded at different time intervals.
Interactions with Nucleobases. Since DNA is a potential target site for transition metal anticancer complexes,^23 the binding of 9-ethylguanine (9-EtG) to complexes ZL47, ZL49, ZL69, ZL74 and ZL107 was studied.

[2] = test system: 9-ethyladenine (9-EtA); experiment: Interactions with nucleobases: 9-EtA adduct formation (1H NMR); type: binding; conditions: 1 mM, 1 mol equiv 9-EtA, D2O, 310 K
Protocol: as §1, §2

[3] = test system: human ovarian A2780 cancer cells; experiment: Cancer cell cytotoxicity, SRB assay; type: cell-based
Protocol: Cancer Cell Cytotoxicity. After plating, human ovarian A2780 cancer cells were treated with Ir^III complexes on day 3 at concentrations ranging from 0.5 μM to 100 μM. Solutions of the Ir^III complexes were made up in 0.125% DMSO to assist dissolution. Stock solutions of the IrIII complexes were firstly prepared in DMSO to assist dissolution, and then diluted into 0.9% saline and medium. After plating 5000 A2780 cells per well on day 1, IrIII complexes were added to the cancer cells on day 3 at concentrations ranging from 0.05 μM to 100 μM. Cells were exposed to the complexes for 24 h, washed, supplied with fresh medium, allowed to grow for three doubling times (72 h), and then the protein content measured (proportional to cell survival) using the sulforhodamine B (SRB) assay.^15 […]. The standard errors are based on two independent experiments of three replicates each.

[4] = Determination of pKa* of coordinated D2O by 1H NMR pH* titration; type: physicochemical; conditions: for pKa (deprotonation of coordinated D2O): calculated from pKa* according to Krezel and Bal (pKa=0.929pKa*+0.42); for pKa* (deprotonation of coordinated D2O): in D2O
Protocol: pH* Measurement. pH* values (pH meter reading without correction for effects of D on glass electrode) of NMR samples in D2O were measured at ca. 298 K directly in the NMR tube, before and after recording NMR spectra, using a Corning 240 pH meter equipped with a micro combination electrode calibrated with Aldrich buffer solutions of pH 4, 7 and 10. For determination of the pKa* value of aquated complexes, complexes were dissolved in D2O and 0.98 mol equiv of AgNO3 was added. The solution was stirred for 24 h at 298 K, and AgCl was removed by filtration.
Determination of pKa* Values. […] The chemical shifts of the chelating ligands or/and methyl group of Cp* protons were plotted against pH*. The pH* titration curves were fitted to the Henderson-Hasselbalch equation, with the assumption that the observed chemical shifts are weighted averages according to the populations of the protonated and deprotonated species.
The changes in the ^1H NMR chemical shifts for the protons of the coordinated chelating ligands in compounds ZL25A, ZL54A, ZL38A, chelating ligands and methyl group in Cp* or Cp^xph in compounds ZL04A, ZL07A, ZL37A, ZL03A, and methyl group in Cp* in compound ZL01A were followed with change in pH* over a range of 2-11. The mean pKa* value was taken for each complex.
When the pH* values of the solutions were increased from about 2 to 11, the NMR peaks assigned to ZL01A, ZL03A, ZL04A, ZL07A, ZL25A, ZL37A, ZL38A and ZL54A gradually shifted to high field in the spectrum.
When the pH* values of the solutions were increased from about 2 to 10, the NMR peaks assigned to aqua complexes ZL47A, ZL49A, ZL69A and ZL74A gradually shifted to high field in the spectrum. The resulting pH titration curves were fitted to the modified Henderson-Hasselbalch equation, from which the pKa* values of the coordinated water were determined.

[5] = 24 h exposure, 72 h recovery, SRB, read-out: A2780 IC50
[6] = screening test, read-out: A2780 IC50, data from screening test

| Molecule | IC50 [3, 5] | pKa (deprotonation of coordinated D2O) [4] | pKa* (deprotonation of coordinated D2O) [4] | further results |
| --- | --- | --- | --- | --- |
| Cc1c(C)c(C)[c-](C)c1C.F[P-](F)(F)(F)(F)F.NCCN.[Cl-].[Ir+3] [ZL01, [(η^5-C5Me5)IrCl(H2NCH2CH2NH2—N,N)]PF6] | > 100 µM |  |  | Reaction with 9-EtG, extent of adduct formation ([1]; 10 min): 100%; Reaction with 9-EtG, extent of adduct formation ([1]; 24 h): 100%; Reaction with 9-EtA, extent of adduct formation ([2]; 10 min): 0%; Reaction with 9-EtA, extent of adduct formation ([2]; 24 h): 0% |
| Cc1c(C)c(C)[c-](C)c1C.NCCN.[2H]O[2H].[Ir+3] [ZL01A, [(η^5-C5Me5)IrCl(en)OD2]^2+] |  | 7.54 | 7.66 |  |
| CC(=O)C=C(C)[O-].Cc1c(C)c(C)[c-](C)c1C.[Cl-].[Ir+3] [ZL02, [(η^5-C5Me5)Ir(acac)Cl]] | > 100 µM |  |  |  |
| Cc1c(C)c(C)[c-](C)c1C.O=C([O-])c1ccccn1.[Cl-].[Ir+3] [ZL03, [(η^5-C5Me5)Ir(η^2—C5H4N-2-CO2)Cl]] | > 100 µM |  |  | Reaction with 9-EtG, extent of adduct formation ([1]; 10 min): 100%; Reaction with 9-EtG, extent of adduct formation ([1]; 24 h): 100%; Reaction with 9-EtA, extent of adduct formation ([2]; 10 min): 80.8%; Reaction with 9-EtA, extent of adduct formation ([2]; 24 h): 80.7% |
| Cc1c(C)c(C)[c-](C)c1C.[Cl-].[Cl][Ir]1[n+]2ccccc2-c2cccc[n+]21 [ZL04, [(η^5-C5Me5)Ir(bipy)Cl]Cl] | > 100 µM |  |  | Reaction with 9-EtG, extent of adduct formation ([1]; 10 min): 28.2%; Reaction with 9-EtA, extent of adduct formation ([2]; 10 min): 0%; Reaction with 9-EtA, extent of adduct formation ([2]; 24 h): 0% |
| Cc1c(C)c(C)[c-](C)c1C.[2H]O[2H].[Ir+3].c1ccc(-c2ccccn2)nc1 [ZL04A, [(η^5-C5Me5)Ir(bipy)OD2]^2+] |  | 6.86 | 6.94 |  |
| Cc1c(C)c(C)[c-](C)c1C.[2H]O[2H].[Ir+3].c1cnc2c(c1)ccc1cccnc12 [ZL07A, [(η^5-C5Me5)Ir(phen)OD2]^2+] |  | 7.74 | 7.88 |  |
| Cc1c(C)c(-c2ccccc2)[c-](C)c1C.NCCN.[Cl-].[Ir+3].c1ccc([B-](c2ccccc2)(c2ccccc2)c2ccccc2)cc1 [ZL31, [(η^5-C5Me4C6H5)IrCl(H2NCH2CH2NH2—N,N)]BPh4] | 17 µM |  |  |  |
| Cc1c(C)c(C)[c-](C)c1C.[Cl-].[Ir+3].[O-]c1cccnc1-c1ncccc1O [ZL44, [(η^5-C5Me5)Ir(bipy(OH)O)Cl]] | 17.2 µM |  |  | cytotoxic activity towards A2780 (in words) [3]: moderate or high activity |
| Cc1c(C)c(C)[c-](-c2ccccc2)c1C.F[P-](F)(F)(F)(F)F.Oc1cccnc1-c1ncccc1O.[Cl-].[Ir+3] [ZL45, [(η^5-C5Me4C6H5)Ir(bipy(OH)2)Cl]PF6] | 7.2 µM |  |  |  |
| Cc1c(C)c(C)[c-](-c2ccc(-c3ccccc3)cc2)c1C.[Cl-].[Ir+3].[O-]c1cccnc1-c1ncccc1O [ZL46, {(η^5-C5Me4C6H4C6H5)Ir[bipy(OH)(O)]Cl}] | 2.8 µM |  |  |  |
| Cc1c(C)c(C)[c-](C)c1C.[Cl-].[Ir+3].[c-]1ccccc1C=Nc1ccccc1 [ZL51, [(η^5-C5Me5)Ir{C6H4-2-C(H)═NPh-κC,N}Cl]] | 5 µM |  |  | cytotoxic activity towards A2780 (in words) [3]: moderate or high activity |
| Cc1c(C)c(C)[c-](C)c1C.Cc1ccnc(-c2cc(C)ccn2)c1.F[P-](F)(F)(F)(F)F.[Cl-].[Ir+3] [ZL55, [(η^5-C5Me5)Ir(bipy(Me)2)Cl]PF6] | > 100 µM |  |  |  |
| Cc1c(C)c(C)[c-](-c2ccccc2)c1C.Cc1ccnc(-c2cc(C)ccn2)c1.F[P-](F)(F)(F)(F)F.[Cl-].[Ir+3] [ZL57, [(η^5-C5Me4C6H5)Ir(bipy(Me)2)Cl]PF6] | 9.2 µM |  |  |  |
| Cc1c(C)c(C)[c-](-c2ccc(-c3ccccc3)cc2)c1C.Cc1ccnc(-c2cc(C)ccn2)c1.F[P-](F)(F)(F)(F)F.[Cl-].[Ir+3] [ZL59, [(η^5-C5Me4C6H4C6H5)Ir(bipy(Me)2)Cl]PF6] | 0.51 µM |  |  |  |
| CN(C)c1ccc(N=Nc2ccccn2)cc1.Cc1c(C)c(C)[c-](C)c1C.F[P-](F)(F)(F)(F)F.[Cl-].[Ir+3] [ZL64, [(η^5-C5Me5)Ir(azpy-NMe2)Cl]PF6] |  |  |  | IC50 [3, 6]: < 30 µM |
| Cc1c(C)c(C)[c-](-c2ccccc2)c1C.F[P-](F)(F)(F)(F)F.[Cl][Ir+2]1[N]2C=CC=c3c2c2c(c4nccnc34)=CC=C[N]21 [ZL89, [(η^5-C5Me4C6H5)Ir(dpq)Cl]PF6] |  |  |  | IC50 [3, 6]: < 5 µM |

| Molecule | IC50 [3, 5] | pKa (deprotonation of coordinated D2O) [4] | pKa* (deprotonation of coordinated D2O) [4] | further results |
| --- | --- | --- | --- | --- |
| Cc1c(C)c(C)[c-](-c2ccccc2)c1C.[Cl-].[Cl][Ir+2].c1ccc2nc3c4cccnc4c4ncccc4c3nc2c1 [ZL93, [(η^5-C5Me4C6H5)Ir(dppz)Cl]Cl] |  |  |  | IC50 [3, 6]: < 5 µM |
| Cc1c(C)c(C)[c-](-c2ccc(-c3ccccc3)cc2)c1C.[Cl-].[Cl][Ir+2].c1cnc2c(c1)c1nccnc1c1cccnc12 [ZL94, [(η^5-C6Me4C6H4C6H5)Ir(dpq)Cl]Cl] |  |  |  | IC50 [3, 6]: < 5 µM |
| Cc1c(C)c(C)[c-](-c2ccc(-c3ccccc3)cc2)c1C.[Cl-].[Cl][Ir+2].c1ccc2nc3c4cccnc4c4ncccc4c3nc2c1 [ZL95, [(η^5-C5Me4C6H4C6H5Pr(dppz)Cl]Cl] |  |  |  | IC50 [3, 6]: < 5 µM |
| CCC[c-]1c(C)c(C)c(C)c1C.[Cl-].[Ir+3].[c-]1ccccc1-c1ccccn1 [ZL100, [(η^5-C5Me4C3H7)Ir(2-phpy)Cl]] |  |  |  | IC50 [3, 6]: < 10 µM |
| Cc1c(C)c(-c2ccc(-c3ccccc3)cc2)[c-](C)c1C.Fc1c[c-]c(-c2ccccn2)c(F)c1.[Cl-].[Ir+3] (stereo not shown) [ZL103, [(η^5-C5Me4C6H4C6H5)Ir(2-dfphpy)Cl]] | 0.67 ± 0.11 µM |  |  |  |
| Cc1c(C)c(-c2ccc(-c3ccccc3)cc2)[c-](C)c1C.F[P-](F)(F)(F)(F)F.[Ir+3].[c-]1ccccc1-c1ccccn1.c1ccncc1 (stereo not shown) [ZL105, [(η^5-C5Me4C6H4C6H5)Ir(2-phpy)(py)]PF6] | 0.12 ± 0.02 µM |  |  |  |
| CN(C)c1ccc(N=Nc2ccccn2)cc1.Cc1c(C)c(-c2ccccc2)[c-](C)c1C.F[P-](F)(F)(F)(F)F.[Cl-].[Ir+3] [ZL109, [(η^5-C5Me4C6H5)Ir(azpy-NMe2)Cl]PF6] |  |  |  | IC50 [3, 6]: < 10 µM |
| [(η^5-C5Me4C6H4C6H5)Ir(2-phpy)(D2O)]^+ [ZL49A] |  | 8.31 | 8.50 |  |
| [(η^5-C5Me4C6H4C6H5)Ir(bipy)OD2]^2+ [ZL25A] |  | 6.63 | 6.68 |  |
| [(η^5-C5Me4C6H4C6H5)Ir(phen)OD2]^2+ [ZL54A] |  | 7.38 | 7.50 |  |
| [(η^5-C5Me4C6H5)Ir(bipy)OD2]^2+ [ZL37A] |  | 6.28 | 6.31 |  |
| [(η^5-C5Me4C6H5)Ir(pico)OD2]^+ [ZL38A] |  | 7.62 | 7.75 |  |
| [(η^5-C5Me5)Ir(2-dfphpy)(D2O)]^+ [ZL74A] |  | 8.32 | 8.51 |  |
| [(η^5-C5Me5)Ir(2-phpy)(D2O)]^+ [ZL47A] |  | 8.75 | 8.97 |  |
| [(η^5-C5Me5)Ir(pico)OD2]^+ [ZL03A] |  | 7.99 | 8.15 |  |
| [(η^5-C5Me5)Ir(tpy)(D2O)]^+ [ZL69A] |  | 8.87 | 9.10 |  |
